In patent US9446039B2, “Aminoheteroaryl compounds as MTH1 inhibitors” (CEMM—FORSCHUNGSZENTRUM FÜR MOLEKULARE MEDIZIN GMBH, priority 2012, dated 2016):

Assays:
Format in all cases: binding
[1] = biological target: T1, SW480 colon carcinoma cells lysate proteins (Homo sapiens, UniProt B2RPK0); settings: PreyGene HMGB1P1
T1 sequence (B2RPK0 1-211): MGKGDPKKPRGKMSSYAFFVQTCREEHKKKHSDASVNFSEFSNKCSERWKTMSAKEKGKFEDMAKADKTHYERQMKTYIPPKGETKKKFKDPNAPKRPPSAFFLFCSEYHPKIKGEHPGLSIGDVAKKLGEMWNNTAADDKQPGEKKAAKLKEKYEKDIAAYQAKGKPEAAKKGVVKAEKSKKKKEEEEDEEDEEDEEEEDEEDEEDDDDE

[2] = biological target: T2, SW480 colon carcinoma cells lysate proteins (Homo sapiens, UniProt O00232); settings: PreyGene PSMD12
T2 sequence (O00232 1-456): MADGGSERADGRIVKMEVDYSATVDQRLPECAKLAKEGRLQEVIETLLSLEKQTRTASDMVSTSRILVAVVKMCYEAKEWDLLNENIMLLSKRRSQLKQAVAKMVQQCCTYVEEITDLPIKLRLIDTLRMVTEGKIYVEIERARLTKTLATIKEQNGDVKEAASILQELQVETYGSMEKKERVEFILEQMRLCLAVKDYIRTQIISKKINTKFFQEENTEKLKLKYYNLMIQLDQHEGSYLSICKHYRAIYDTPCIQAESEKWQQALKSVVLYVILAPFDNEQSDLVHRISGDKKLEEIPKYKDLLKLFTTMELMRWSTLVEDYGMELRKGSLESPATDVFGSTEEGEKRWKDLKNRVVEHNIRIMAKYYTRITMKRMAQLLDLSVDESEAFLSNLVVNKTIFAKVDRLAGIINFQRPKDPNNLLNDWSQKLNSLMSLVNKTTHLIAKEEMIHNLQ

[3] = biological target: SW480 colon carcinoma cells lysate proteins (Homo sapiens, UniProt P28070); settings: PreyGene PSMB4
[4] = biological target: SW480 colon carcinoma cells lysate proteins (Homo sapiens, UniProt Q9BZK3); settings: PreyGene NACAP1; SW480 cells
[5] = biological target: SW480 colon carcinoma cells lysate proteins (Homo sapiens, UniProt Q14240); settings: PreyGene EIF4A2; SW480 cells
[6] = biological target: SW480 colon carcinoma cells lysate proteins (Homo sapiens, UniProt Q09666); settings: PreyGene AHNAK; SW480 cells
[7] = biological target: SW480 colon carcinoma cells lysate proteins (Homo sapiens, UniProt P38646); settings: PreyGene HSPA9
[8] = biological target: T3, SW480 colon carcinoma cells lysate proteins (Homo sapiens, UniProt P22314); settings: PreyGene UBA1
T3 sequence (P22314 1-1058): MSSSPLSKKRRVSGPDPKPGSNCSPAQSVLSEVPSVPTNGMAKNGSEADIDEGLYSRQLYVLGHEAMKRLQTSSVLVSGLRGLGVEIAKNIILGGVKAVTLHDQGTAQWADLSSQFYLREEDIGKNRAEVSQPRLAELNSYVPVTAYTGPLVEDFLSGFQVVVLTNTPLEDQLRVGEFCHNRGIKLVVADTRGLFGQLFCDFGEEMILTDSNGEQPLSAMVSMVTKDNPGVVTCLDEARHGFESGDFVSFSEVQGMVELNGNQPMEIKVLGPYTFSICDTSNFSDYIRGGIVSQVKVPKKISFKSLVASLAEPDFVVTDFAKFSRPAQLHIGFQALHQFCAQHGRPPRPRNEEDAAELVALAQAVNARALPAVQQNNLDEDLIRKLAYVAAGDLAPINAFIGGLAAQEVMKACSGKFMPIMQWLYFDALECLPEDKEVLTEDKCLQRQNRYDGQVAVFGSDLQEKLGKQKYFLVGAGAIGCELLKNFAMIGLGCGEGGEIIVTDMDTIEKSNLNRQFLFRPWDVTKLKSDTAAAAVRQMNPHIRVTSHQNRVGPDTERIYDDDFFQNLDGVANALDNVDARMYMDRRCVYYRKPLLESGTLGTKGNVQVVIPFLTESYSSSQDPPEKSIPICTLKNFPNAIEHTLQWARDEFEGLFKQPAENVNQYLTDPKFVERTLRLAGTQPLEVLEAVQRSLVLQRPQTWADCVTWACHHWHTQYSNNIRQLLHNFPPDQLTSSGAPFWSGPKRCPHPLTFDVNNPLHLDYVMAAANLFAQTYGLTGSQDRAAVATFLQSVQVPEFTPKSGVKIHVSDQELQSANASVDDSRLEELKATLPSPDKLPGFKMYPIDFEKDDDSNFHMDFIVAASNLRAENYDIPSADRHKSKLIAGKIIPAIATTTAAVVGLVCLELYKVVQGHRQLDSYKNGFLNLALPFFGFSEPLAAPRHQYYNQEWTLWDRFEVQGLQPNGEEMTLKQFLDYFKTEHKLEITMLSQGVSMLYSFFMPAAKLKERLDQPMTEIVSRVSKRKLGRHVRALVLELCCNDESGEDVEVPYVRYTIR

Sequence of SW480 colon carcinoma cells lysate proteins (Homo sapiens, UniProt P28070) (P28070 46-264): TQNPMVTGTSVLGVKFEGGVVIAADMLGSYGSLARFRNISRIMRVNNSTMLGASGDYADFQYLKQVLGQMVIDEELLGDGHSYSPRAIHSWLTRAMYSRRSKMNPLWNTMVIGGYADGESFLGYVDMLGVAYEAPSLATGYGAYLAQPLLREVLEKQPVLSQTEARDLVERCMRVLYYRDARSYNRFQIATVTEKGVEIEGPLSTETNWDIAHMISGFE
Sequence of SW480 colon carcinoma cells lysate proteins (Homo sapiens, UniProt Q14240) (Q14240 whole entry): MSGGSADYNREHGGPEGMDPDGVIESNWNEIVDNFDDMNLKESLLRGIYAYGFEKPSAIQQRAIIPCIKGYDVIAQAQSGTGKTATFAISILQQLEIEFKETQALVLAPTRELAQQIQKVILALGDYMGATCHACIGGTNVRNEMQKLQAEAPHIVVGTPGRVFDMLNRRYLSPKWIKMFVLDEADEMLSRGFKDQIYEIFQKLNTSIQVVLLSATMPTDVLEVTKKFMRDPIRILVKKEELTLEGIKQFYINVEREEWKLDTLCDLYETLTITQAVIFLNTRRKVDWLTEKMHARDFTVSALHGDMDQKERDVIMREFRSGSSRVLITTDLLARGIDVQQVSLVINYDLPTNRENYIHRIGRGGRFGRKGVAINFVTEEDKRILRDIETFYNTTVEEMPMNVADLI
Sequence of SW480 colon carcinoma cells lysate proteins (Homo sapiens, UniProt P38646) (P38646 47-679): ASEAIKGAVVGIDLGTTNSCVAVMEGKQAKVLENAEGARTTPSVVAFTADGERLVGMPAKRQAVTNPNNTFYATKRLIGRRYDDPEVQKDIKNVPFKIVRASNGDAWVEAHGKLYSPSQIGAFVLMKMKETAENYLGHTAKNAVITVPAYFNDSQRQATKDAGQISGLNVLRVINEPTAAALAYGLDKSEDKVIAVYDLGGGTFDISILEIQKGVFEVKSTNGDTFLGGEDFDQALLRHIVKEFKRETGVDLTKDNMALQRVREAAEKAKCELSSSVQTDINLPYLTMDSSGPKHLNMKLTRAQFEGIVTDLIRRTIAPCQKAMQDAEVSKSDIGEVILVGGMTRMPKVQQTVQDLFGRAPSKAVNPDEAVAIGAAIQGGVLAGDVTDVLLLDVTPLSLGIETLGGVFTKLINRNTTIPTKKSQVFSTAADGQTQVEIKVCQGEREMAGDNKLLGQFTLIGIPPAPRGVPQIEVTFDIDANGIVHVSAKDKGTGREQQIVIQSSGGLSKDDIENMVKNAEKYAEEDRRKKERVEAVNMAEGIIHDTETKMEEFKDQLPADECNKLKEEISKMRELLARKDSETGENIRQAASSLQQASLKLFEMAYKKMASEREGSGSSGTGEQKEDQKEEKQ

C[C@H](Oc1cc(-c2cnn(C3CCNCC3)c2)cnc1N)c1c(Cl)ccc(F)c1Cl [(5)-crizotinib]
0.4997: AvgP [8]
1: SC.Exp. 2-1 [4] | SC.Exp. Sum [4] | SC.Exp. 1-1 [5] | SC.Exp. 1-2 [5] | SC.Exp. 2-2 [5]
0.35: AvgP [2]
15: SC.Exp. 1-1 [8] | SC.Exp. 1-2 [8]
5: SC.Exp. 1-1 [6] | Sum (SC.Exp.) [7]
0.1875: AvgP [3]
3: SC.Exp. Sum [5] | SC.Exp. 1-2 [7]
2: SC.Exp. 1-1 [1] | SC.Exp. 1-2 [1] | SC.Exp. 1-1 [2] | SC.Exp. 1-2 [2] | SC.Exp. 1-1 [3] | Sum (SC.Exp.) [3] | SC.Exp. 1-1 [7]
30: Sum (SC.Exp.) [8]
4: Sum (SC.Exp.) [1] | Sum (SC.Exp.) [2]
23: SC.Exp. Sum [6]
0: SC.Exp. 2-1 [1] | SC.Exp. 2-2 [1] | SC.Exp. 2-1 [2] | SC.Exp. 2-2 [2] | SC.Exp. 1-2 [3] | SC.Exp. 2-1 [3] | SC.Exp. 2-2 [3] | AvgP [4] | SC.Exp. 1-1 [4] | SC.Exp. 1-2 [4] | SC.Exp. 2-2 [4] | AvgP [5] | SC.Exp. 2-1 [5] | AvgP [6] | SC.Exp. 2-1 [7] | SC.Exp. 2-2 [7] | SC.Exp. 2-1 [8] | SC.Exp. 2-2 [8]
0.3829: AvgP [1]
6: SC.Exp. 1-2 [6] | SC.Exp. 2-1 [6] | SC.Exp. 2-2 [6]
0.3567: AvgP [7]
